Source: US8101655B2, “Fluorescent dyes and complexes” (priority 2004, dated 2012)
Like-named read-outs stand apart in the source and are kept apart here.

Tests used:
[1] = pKa of dyes and complexes (fluorescence titration)
From the text: By way of illustration, Table 1, below, lists a number of dyes, some prior to functionalisation, and complexes according to the present invention (in each X is O^−), together with their pKa values.

[2] = Fluorescence / colour response to pH; format: physicochemical; conditions: on tlc, compared with 2-[3,6-bisdimethylaminoxanth-9-ylium]-5-dimethylaminophenol
From the text: The dyes and complexes of the present invention show a negative fluorescence intensity response with increasing pH. […] Furthermore, the pals of these dyes and complexes may be varied by selection of the substituents R^5 and R^6, and by the inclusion of electron donating groups on the lowermost aryl ring, to give a range of dyes and complexes having pKa's particularly suited to cell analysis procedures.

Compound: COCCOCCN(CCOCCOC)c1ccc(-c2c3ccc(=[N+](CCOCCOC)CCOCCOC)cc-3oc3cc(N(CCOCCOC)CCOCCOC)ccc23)c([O-])c1
- pKa [1]: 2.3

Compound: 2-[3-diethylamino-6-dimethylamino-xanth-9-ylium]-5-dimethylaminophenol
- pH sensitivity [2]: same pH sensitivity

Compound: R1-Y=NHCSNC6H4CH2CH2; target=transferin; R2=Et; R3=Me; R4=Me; R5-Y2=Et; R6=Et: complex of a dye of formula (I) bonded to transferin
- pKa ([1]; Table 1, X is O-, dyes and complexes): 2.0
